Experimental findings from PubChem BioAssay AID210 (DTP/NCI, 2004) are described below.

Toxic doses and inconclusive results are not listed.

In the experiment the test system is CD2F1 mice, ip Colon 26 adenocarcinoma, median survival T/C. The experiment is described as follows: NCI In Vivo Anticancer Drug Screen. Data for tumor model Colon 26 Adenocarcinoma (intraperitoneal) in CD2F1 (CDF1) mice. As to conditions: endpoint: median survival time, higher = longer survival. The protocol:
The antitumor activity of compounds was measured in mice bearing transplantable tumors. Survival or tumor size were measured and the results are expressed as the measurement made in the treated group (T) divided by the measurement made in the vehicle treated control group (C). The tumor model used in this assay is Colon 26 Adenocarcinoma (intraperitoneal) in CD2F1 (CDF1) mice

Where [1] appears, read: dose: 2.0 mg/kg/injection, schedule: Q04DX003 (ip), vehicle: Klucel (hydroxypropylcellulose) (HPC).

For `COc1ccc2c(c1O)-c1cccc3c1[C@@H](C2)N(CCCl)CC3`, the T/C is 107 % of control (dose: 4.0 mg/kg/injection, schedule: Q04DX002 (ip), vehicle: Klucel (hydroxypropylcellulose) (HPC)); 119 % of control (dose: 8.0 mg/kg/injection, schedule: Q04DX002 (ip), vehicle: Klucel (hydroxypropylcellulose) (HPC)); 108 % of control (dose: 16.0 mg/kg/injection, schedule: Q04DX002 (ip), vehicle: Klucel (hydroxypropylcellulose) (HPC)); 124 % of control (dose: 32.0 mg/kg/injection, schedule: Q04DX002 (ip), vehicle: Klucel (hydroxypropylcellulose) (HPC)).

In the case of `CN(C)/N=N/c1nc[nH]c1C(N)=O`, the T/C reads like this: (dose: 25.0 mg/kg/injection, schedule: Q04DX003 (ip), vehicle: carboxymethylcellulose (CMC)) 112 % of control; (dose: 50.0 mg/kg/injection, schedule: Q04DX003 (ip), vehicle: carboxymethylcellulose (CMC)) 120 % of control; (dose: 100.0 mg/kg/injection, schedule: Q04DX003 (ip), vehicle: carboxymethylcellulose (CMC)) 122 % of control; (dose: 240.0 mg/kg/injection, schedule: Q01DX001 (ip), vehicle: Klucel (hydroxypropylcellulose) (HPC)) 95 % of control; (dose: 400.0 mg/kg/injection, schedule: Q01DX001 (ip), vehicle: Klucel (hydroxypropylcellulose) (HPC)) 92 % of control; (dose: 400.0 mg/kg/injection, schedule: Q04DX003 (ip), vehicle: carboxymethylcellulose (CMC)) 116 % of control. In addition, the T/C (dose: 600.0 mg/kg/injection, schedule: Q01DX001 (ip), vehicle: Klucel (hydroxypropylcellulose) (HPC)) is 61 % of control.

On to `NC(=O)c1cn(C2OC(CO)C(O)C2O)c2ncnc(N)c12` (stereo unspecified), for which the T/C under setting [1] was 156 % of control.

For `C=C(C)[C@]12CC(C)C34OC(/C=C\C=C\CCCCCCCCC)(O[C@@H]1[C@@H]3[C@@H]1O[C@]1(CO)[C@@H](O)[C@]1(O)C(=O)C(C)=C[C@@H]41)O2` (stereo partly specified), the T/C reads like this: (dose: 0.18 mg/kg/injection, schedule: Q04DX003 (ip), vehicle: distilled water + alcohol) 102 % of control; (dose: 0.37 mg/kg/injection, schedule: Q04DX003 (ip), vehicle: distilled water + alcohol) 105 % of control; (dose: 0.75 mg/kg/injection, schedule: Q04DX003 (ip), vehicle: distilled water + alcohol) 114 % of control.

With `C=C1C(=O)OC2CC1CCC1(C)OC1CCC(C)=CCCC2(C)O` (stereo unspecified), the T/C by setting is: (dose: 22.5 mg/kg/injection, schedule: Q04DX002 (ip), vehicle: Klucel (hydroxypropylcellulose) (HPC)) 105 % of control; (dose: 45.0 mg/kg/injection, schedule: Q04DX002 (ip), vehicle: Klucel (hydroxypropylcellulose) (HPC)) 97 % of control; (dose: 90.0 mg/kg/injection, schedule: Q04DX002 (ip), vehicle: Klucel (hydroxypropylcellulose) (HPC)) 89 % of control.

On to `O=C(O)CC(NC(=O)CP(=O)(O)O)C(=O)O` (stereo unspecified), for which the T/C (dose: 108.0 mg/kg/injection, schedule: Q04DX003 (ip), vehicle: saline) was 119 % of control; the T/C (dose: 180.0 mg/kg/injection, schedule: Q04DX003 (ip), vehicle: saline) is 115 % of control; the T/C (dose: 180.0 mg/kg/injection, schedule: Q04DX003 (ip), vehicle: water) was 161 % of control; the T/C (dose: 300.0 mg/kg/injection, schedule: Q04DX003 (ip), vehicle: water) is 106 % of control; the T/C (dose: 833.0 mg/kg/injection, schedule: Q04DX003 (ip), vehicle: saline) is 187 % of control.

Take `CN(C)C(=O)c1cccc(COc2ccc(N3C(N)=NC(N)=NC3(C)C)cc2Cl)c1`: the T/C is, setting by setting: (dose: 24.0 mg/kg/injection, schedule: Q06HX018 (ip), vehicle: saline) 96 % of control; (dose: 36.0 mg/kg/injection, schedule: Q06HX018 (ip), vehicle: saline) 98 % of control.

For the molecule `CCCCCCCCNc1cc2c3c(c1)CCCN3CCC2`, the T/C is 104 % of control (dose: 0.37 mg/kg/injection, schedule: Q04DX003 (ip), vehicle: Klucel (hydroxypropylcellulose) (HPC)); 100 % of control (dose: 0.75 mg/kg/injection, schedule: Q04DX003 (ip), vehicle: Klucel (hydroxypropylcellulose) (HPC)); 102 % of control (dose: 1.5 mg/kg/injection, schedule: Q04DX003 (ip), vehicle: Klucel (hydroxypropylcellulose) (HPC)); 109 % of control (dose: 3.0 mg/kg/injection, schedule: Q04DX003 (ip), vehicle: Klucel (hydroxypropylcellulose) (HPC)); 106 % of control (dose: 6.0 mg/kg/injection, schedule: Q04DX003 (ip), vehicle: Klucel (hydroxypropylcellulose) (HPC)).

In the case of `Oc1ccc(C2CCCCC2)cc1CN1CCCCC1`, the T/C (dose: 3.12 mg/kg/injection, schedule: Q04DX003 (ip), vehicle: saline) was 112 % of control; the T/C (dose: 6.25 mg/kg/injection, schedule: Q04DX003 (ip), vehicle: saline) was 114 % of control; the T/C (dose: 12.5 mg/kg/injection, schedule: Q04DX003 (ip), vehicle: saline) was 112 % of control; the T/C (dose: 25.0 mg/kg/injection, schedule: Q04DX003 (ip), vehicle: saline) is 104 % of control; the T/C (dose: 50.0 mg/kg/injection, schedule: Q04DX003 (ip), vehicle: saline) was 115 % of control; the T/C (dose: 100.0 mg/kg/injection, schedule: Q04DX003 (ip), vehicle: saline) was 120 % of control.

With `N/C(=N\O)c1cn(C2OC(CO)C(O)C2O)c2ncnc(N)c12` (stereo unspecified), the T/C under setting [1] is 116 % of control and the T/C (dose: 16.0 mg/kg/injection, schedule: Q04DX003 (ip), vehicle: Klucel (hydroxypropylcellulose) (HPC)) was 167 % of control.

For `COc1cc([C@@H]2c3cc4c(cc3[C@@H](OC3OC5COC(C)OC5C(O)C3O)[C@H]3COC(=O)[C@H]23)OCO4)cc(OC)c1O` (stereo partly specified), the T/C (dose: 25.0 mg/kg/injection, schedule: Q03DX002 (ip), vehicle: other) was 103 % of control; the T/C (dose: 32.0 mg/kg/injection, schedule: Q04DX003 (ip), vehicle: saline) is 151 % of control; the T/C (dose: 40.0 mg/kg/injection, schedule: Q03DX002 (ip), vehicle: other) is 120 % of control; the T/C (dose: 60.0 mg/kg/injection, schedule: Q03DX002 (ip), vehicle: other) was 107 % of control; the T/C (dose: 64.0 mg/kg/injection, schedule: Q04DX003 (ip), vehicle: saline) was 193 % of control.

As for `Nc1ncnc2nc[nH]c12`, the T/C (dose: 64.0 mg/kg/injection, schedule: Q04DX002 (ip), vehicle: Klucel (hydroxypropylcellulose) (HPC)) was 97 % of control; the T/C (dose: 128.0 mg/kg/injection, schedule: Q04DX002 (ip), vehicle: Klucel (hydroxypropylcellulose) (HPC)) is 91 % of control; the T/C (dose: 256.0 mg/kg/injection, schedule: Q04DX002 (ip), vehicle: Klucel (hydroxypropylcellulose) (HPC)) is 95 % of control; the T/C (dose: 512.0 mg/kg/injection, schedule: Q04DX002 (ip), vehicle: Klucel (hydroxypropylcellulose) (HPC)) was 94 % of control.

With `COc1cc2oc(=O)ccc2cc1[C@@H]1OC(=O)C2(C)O[C@@H]12` (stereo partly specified), the T/C was 91 % of control (dose: 0.15 mg/kg/injection, schedule: Q01DX009 (ip), vehicle: water); 106 % of control (dose: 0.31 mg/kg/injection, schedule: Q01DX009 (ip), vehicle: water); 111 % of control (dose: 0.62 mg/kg/injection, schedule: Q01DX009 (ip), vehicle: water); 94 % of control (dose: 1.25 mg/kg/injection, schedule: Q01DX009 (ip), vehicle: water); 88 % of control (dose: 2.5 mg/kg/injection, schedule: Q01DX009 (ip), vehicle: water); 90 % of control (dose: 5.0 mg/kg/injection, schedule: Q01DX009 (ip), vehicle: water). For the same molecule, under “dose: 10.0 mg/kg/injection, schedule: Q01DX009 (ip), vehicle: water”, the T/C was 102 % of control.

As for `O=c1c(O)c(-c2ccc(O)c(O)c2)oc2cc(O)cc(O)c12`, the T/C reads like this: (dose: 100.0 mg/kg/injection, schedule: Q04DX003 (ip), vehicle: other) 89 % of control; (dose: 800.0 mg/kg/injection, schedule: Q04DX003 (ip), vehicle: other) 87 % of control.

In the case of `C#C[C@]1(O)CC[C@H]2[C@@H]3CCc4cc(O)ccc4[C@H]3CC[C@@]21C`, the T/C (dose: 25.0 mg/kg/injection, schedule: Q04DX003 (ip), vehicle: Klucel (hydroxypropylcellulose) (HPC)) is 103 % of control; the T/C (dose: 50.0 mg/kg/injection, schedule: Q04DX003 (ip), vehicle: Klucel (hydroxypropylcellulose) (HPC)) is 100 % of control; the T/C (dose: 100.0 mg/kg/injection, schedule: Q04DX003 (ip), vehicle: Klucel (hydroxypropylcellulose) (HPC)) is 96 % of control; the T/C (dose: 200.0 mg/kg/injection, schedule: Q04DX003 (ip), vehicle: Klucel (hydroxypropylcellulose) (HPC)) was 90 % of control; the T/C (dose: 400.0 mg/kg/injection, schedule: Q04DX003 (ip), vehicle: Klucel (hydroxypropylcellulose) (HPC)) is 86 % of control.
